Source: ChEMBL document CHEMBL4834424, “Targeting Chikungunya Virus Replication by Benzoannulene Inhibitors” (J Med Chem, 2021)
In brackets after ≈: the same amount, converted by molar mass.

Columns and labels:
[1] = Aqueous solubility of the compound; format: physicochemical
Chikungunya virus [2] = test: (§1) Antiviral activity against CHIKV infected in human NHDF cells assessed as reduction in virus titer in cell supernatant by measuring inhibition of plaque formation using Vero cells pretreated with NHDF cells followed by infected with virus incubated for 24 hrs and measured following infection of supernatants with Vero cells for 48 hrs by plaque based methylene blue dye analysis; format: functional, organism-based
[3] = Cytotoxicity against human NHDF cells assessed as cell viability measured after 24 hrs by Cell Titer Glo luminescent assay; format: cell-based; settings: NHDF cells
[4] = Octanol-aqueous buffer distribution coefficient, log D of the compound by LC-MS analysis; format: physicochemical
[5] = Metabolic stability in mouse liver microsomes assessed as half life in presence of NADPH incubated up to 45 mins by LC-MS/MS analysis; format: ADME, Microsome; parameters: unit not given here
Chikungunya virus [6] = test: as §1, with “Vero cells at 10 uM pretreated with” for “Vero cells pretreated with”; format: functional; settings: time 72 hrs
[7] = Metabolic stability in human liver microsomes assessed as half life in presence of NADPH incubated up to 45 mins by LC-MS/MS analysis; format: ADME, Microsome

Compound	EC50 (Chikungunya virus [2]) [µM]	CC50 at 24 h [3] [µM]	log(activity) (Chikungunya virus [6])	other results
CC(C)(C)c1ccc(C(=O)Nc2cc3c(cc2OC(F)(F)F)CCCCC3)cc1	3.7	> 30		solubility ([1]; buffer): 8 µM (≈ 3.24 µg/mL); logD [4]: 5; t1/2 ([5]; microsomes, 0.75 h): 127
CC(C)(C)c1ccc(C(=O)Nc2cc3c(cc2OCc2ccccn2)CCC3)cc1	9	> 30	1.2	
CCOc1cc2c(cc1NC(=O)c1ccc(C(C)(C)C)cc1)CCCCC2	5.19	> 30	2.2	
COc1nc2c(cc1NC(=O)c1ccc(C(C)(C)C)cc1)CCCC2	2.3	> 30	6.7	
CC(C)(C)c1ccc(NC(=O)c2cc3c(cc2OC(F)F)CCCCC3)cc1		> 30	1.4	logD [4]: 5; half-life [7]: 70 h; half-life ([5]; liver microsomes): 660
COc1cc2c(cc1NC(=O)c1ccc(C3(O)CCC3)cc1)CCCCC2		> 30	<1	
COc1cc2c(nc1NC(=O)c1ccc(C(C)(C)C)cc1)CCCCC2	0.59	> 30	3.18	
COc1cc2c(cc1NC(=O)c1ccc(C(C)(C)C)cc1)CCCCN2	3.3	> 30	3.9	
COc1cc2c(cc1NC(=O)c1ccc(C(C)(C)C)cc1)CCC2		> 30	<1	
CC(C)(C)c1ccc(C(=O)Nc2cc3c(cc2[N+](=O)[O-])CCCCC3)cc1		> 30	0	
CC(C)(C)c1ccc(C(=O)Nc2cc3c(cc2OCc2ccccn2)CCCC3)cc1	9.1	> 30	1.1	
COc1cc2c(cc1NC(=O)c1ccc(C(C)(C)C)cc1)CCCCN2C		> 30	<1	
[2H]C([2H])([2H])Oc1cc2c(cc1NC(=O)c1ccc(C(C)(C)C)cc1)CCCCC2	1	> 30	23	solubility ([1]; aqueous, read-out: solubility): 28 µM (≈ 9.93 µg/mL); logD [4]: 3; half-life [7]: 31 h
COc1cc2c(cc1C(=O)Nc1ccc(-c3cc[nH]n3)cc1)CCCCC2	3.4	> 30	5.9	
CCc1cc2c(cc1C(=O)Nc1ccc(C(C)(C)C)cc1)CCCCC2		> 30	0.2	
CCOc1cc2c(cc1C(=O)Nc1ccc(C(C)(C)C)cc1)CCCCC2	3.8	> 30	1.5	
CC(C)(C)c1ccc(C(=O)Nc2cc3c(cc2N)CCCCC3)cc1		> 30	0	
COc1cc2c(cc1NC(=O)c1ccc(C(C)(C)C)cc1)CCCC(=O)N2		> 30	<1	
COc1cc2c(cc1NC(=O)c1ccc(C(C)(C)C)cc1)CCCC(=O)N2C(C)C	5.1	> 30	1.7	
CCOc1cc2c(cc1NC(=O)c1ccc(C(C)(C)C)cc1)CCC2	6.23	> 30	1	
COCCOc1cc2c(cc1NC(=O)c1ccc(C(C)(C)C)cc1)CCCCC2		> 30	0	
COc1cc2c(cc1NC(=O)c1ccc(C(C)(C)CO)cc1)CCCCC2	7.12	> 30	3.1	
CCCOc1cc2c(cc1NC(=O)c1ccc(C(C)(C)C)cc1)CCCCC2	7.05	> 30	1	
CC(=O)Oc1cc2c(cc1NC(=O)c1ccc(C(C)(C)C)cc1)CCCCC2	2.8	> 30	52	solubility ([1]; aqueous, read-out: solubility): < 1 µM; logD [4]: 5; half-life [7]: 7 h
CC(C)(C)c1ccc(C(=O)Nc2cc3c(cc2C(F)(F)F)CCCCC3)cc1		> 30	0	
COc1cc2c(nc1NC(=O)c1ccc(C(C)(C)C)cc1)CCCC2		> 30	1.3	
